This is an account of results in publication PMC8894567 (The Journal of Antibiotics, 2022).

In one test the test system is influenza virus A H7N1. To be noted: cited from earlier work.
For test [1], the system named is influenza virus A/Puerto Rico/8/34 (H1N1). In kind it is cell-based.
Another test has as its system influenza type B. The following applies: cited from earlier work.
For a further test, the system named is influenza type A virus. To be noted: cited from earlier work.
The test system of a further test is HIV. To be noted: read-out: EC50 anti-HIV activity; cited from earlier work.
The next test has as its system herpes virus. To be noted: read-out: EC50 antiherpetic; cited from earlier work.
The next test concerns Flu A H1N1 strain. To be noted: cited from earlier work.

For the molecule “3-oxime of betulonic acid and L-leucine-28-amide”, in the test with influenza virus A H7N1, the EC50 is 2.17 µM and the “suppression of influenza virus A H7N1” value is reported as 90%.

As to `CC(N)C12CC3CC(CC(C3)C1)C2` (stereo not drawn) [Rimantadine], the “SI, selectivity index CC50/IC50” value in test [1] came to 5.

Consider `COC(=O)[C@]12CC[C@@H](C)[C@H](C)[C@H]1C1=CC[C@@H]3[C@@]4(C)CC[C@H](O)C(C)(C)[C@@H]4CC[C@@]3(C)[C@]1(C)CC2` [methyl ester of ursolic acid], for which the protection index with influenza type B is recorded as 80%; in the test with influenza type A virus, 60%.

For Alnincanone, the protection index with influenza type B is given as 80%; in the test on influenza type A virus it was 60%.

As to “Ethyl β-alaninate diamide 2,3 seco-lupane”, the EC50 was 5.1 µM in the test with HIV and 4.1 µM in the test on herpes virus.

On to echinocystic acid, for which the protection index with influenza type B is 80%; in the test on influenza type A virus, 60%.

For the molecule “lupane 3,4-seco-3,28-bis-N,N-methylpiperazine-amide”, the IC50 with Flu A H1N1 strain is 27 µM.

As a reminder, the EC50 is the midpoint of the concentration-response curve. Broadly, the IC50 is the concentration needed to halve the response being measured.
